From patent US20260258084A1, “New Peptides as Selective IL-23 Receptor Antagonists” (Sanofi, priority 2022, published 2026)
Starred links: 1 amine or outer side, 2 acyl side, 3 side chain; linkers in the order of their positions; H or OH if unused. Positions of bridges follow the written chain, without caps; N, C: chain ends. Non-standard residues stand in square brackets, D forms with d. Residues, ends and D or L forms follow the SMILES beside them. *: point of attachment. X3 = CN(CCCCC(=O)N[C@@H](CS[*:2])C(=O)[*:1])[*:3]; Trp(7-Me) = Cc1cccc2c(C[C@H](N)C(=O)O)c[nH]c12; X1 = O=C(CCCCN[*:3])N[C@@H](CS[*:2])C(=O)[*:1]; 2Nal = N[C@@H](Cc1ccc2ccccc2c1)C(=O)O; AEF = NCCOc1ccc(C[C@H](N)C(=O)O)cc1; X4 = CN(CCCCCC(=O)[*:2])[*:1]; αMeL = CC(C)C[C@](C)(N)C(=O)O; Thp = NC1(C(=O)O)CCOCC1; Me2NCH2CH2 = CN(C)CC*; Aib = CC(C)(N)C(=O)O; Ava = NCCCCC(=O)O; βAla = NCCC(=O)O; Sar = CNCC(=O)O

Assays:
[1] = Chemical stability assessment of peptides (relative purity loss); assay type: physicochemical; conditions: 24 hours at 37° C.; for Chemical stability (relative purity loss) Buffer pH 1.2: 50 mM HCl pH 1.2 + acetonitrile (1:1); for Chemical stability (relative purity loss) Buffer pH 6.5: 50 mM phosphate buffer pH 6.5 + acetonitrile (1:1); for Chemical stability (relative purity loss) Buffer pH 7.4: 50 mM phosphate buffer pH 7.4 + acetonitrile (1:1)
Method in brief: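 Peptide solutions at 1 mg/ml (purity-corrected) in 1:1 acetonitrile with 50 mM HCl pH 1.2, or 50 mM phosphate pH 6.5 or pH 7.4, held 24 hours at 2° C. and 37° C. Supernatants analysed by UHPLC-UV; relative purity loss taken as percent drop in peak-area purity from 0 to 24 hours at 37° C.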

Pancreatin = assay: Protease stability in simulated intestinal fluid (Pancreatin-SIF, FaSSIF); assay type: in vitro ADME; conditions: 1 μM peptide, 37° C.; for remaining at 1 h, 1 µM: 60 min, read-out: FaSSIF 60 (min), remaining percent of peptide; for remaining at 2 h, 1 µM: 120 min, read-out: FaSSIF 120 (min), remaining percent of peptide; for remaining at 4 h, 1 µM: 240 min, read-out: FaSSIF 240 (min), remaining percent of peptide
Method in brief: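 LC-MS/MS peak areas at 0, 60, 120 and 240 min, normalised to time 0 as 100%, give percent remaining. Reactions used 1 μM final peptide at 37° C in pancreatin-SIF (1 mg pancreatin in 10 mL SIF concentrate) and were stopped with ethanol containing 0.1% HCOOH.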

[2] = molecular target: T1, human interleukin-23 receptor (recombinant human IL-23R-Fc chimera) (Homo sapiens, UniProt Q5VWK5); assay: Human ELISA IL23/IL23R (assay for specific human IL23R antagonists); assay type: binding; conditions: Table 10; read-out: Human ELISA IL23/IL23R IC50
T1 construct: Fc (IgG Fc fusion)
Method in brief: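 Competition format: peptide dilutions compete for IL23R-Fc chimera (0.1 μg/ml final, 60 min, room temperature) binding to immobilized human IL23 coated at […] overnight at 4 °C. Read-out is fluorogenic HRP signal from goat anti-hu-IgG1 detecting captured receptor.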

Pepsin = tested on: T2, Pepsin; assay: Protease stability in simulated gastric fluid (Pepsin-SGF, FaSSGF); assay type: in vitro ADME; conditions: simulated gastric fluid with pepsin (Pepsin-SGF), 60 min, 1 μM peptide, 37° C., read-out: FaSSGF 60 (min), remaining percent of peptide
T2 construct: purchased Merck Millipore
Method in brief: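 LCMS/MS peak areas, normalised to the time-0 sample as 100%, give percent remaining. Conditions: 37° C incubation of 1 μM final peptide in simulated gastric fluid with pepsin; ethanol/0.1% HCOOH quench at 0, 60, 120, 240 min.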

[3] = tested on: IL-23 induced STAT3 signaling in HEK-Blue™ IL-23 cells; assay: IL-23 induced STAT3 signaling in HEK-Blue IL-23 cells (SEAP reporter); assay type: cell-based; conditions: human IL23 0.25 ng/ml, read-out: pSTAT3
Method in brief: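 Secreted SEAP, read at OD 620-655 nm after 45 min QUANTI-Blue development, reports STAT3 activation. Beforehand, cells were exposed to peptide dilutions for 60 min at 37 °C and then to 0.25 ng/ml final human IL-23 overnight, at 10,000 cells/well.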

| Compound | Chemical stability (relative purity loss) Buffer pH 1.2 [1] | Chemical stability (relative purity loss) Buffer pH 6.5 [1] | Chemical stability (relative purity loss) Buffer pH 7.4 [1] | remaining at 1 h, 1 µM (Pancreatin) | remaining at 2 h, 1 µM (Pancreatin) | remaining at 4 h, 1 µM (Pancreatin) | IC50 [2] | remaining at 1 h, 1 µM (Pepsin) | IC50 [3] |
| --- | --- | --- | --- | --- | --- | --- | --- | --- | --- |
| CC(=O)N[C@H]1CCCCNC(=O)[C@@H]2CSSC[C@H](NC(=O)[C@H](CCC(N)=O)NC(=O)[C@H](Cc3c[nH]c4ccccc34)NC1=O)C(=O)N[C@@H](Cc1ccc(OCCN(C)C)cc1)C(=O)N[C@@H](Cc1ccc3ccccc3c1)C(=O)NC(C)(C)C(=O)N[C@H](C(=O)N[C@@H](C)C(=O)NCC(N)=O)CCC(=O)NCCCCC(=O)N2 [compound 32] (Ac-KWQCY(Me2NCH2CH2)[2Nal][Aib]EAG-NH2; linker 1-4-8 via X1) | 10.5% | 0.0% | 1.0% | 89% | 77% | 55% | 0.48 nM | 78% | 20.5 nM |
| CC(C)C[C@@H](NC(=O)[C@H](CC(N)=O)NC(=O)[C@@H]1CCC(=O)NCCCCC(=O)N[C@H]2CSSC[C@H](NC(=O)[C@H](CCC(N)=O)NC(=O)[C@H](Cc3c[nH]c4ccccc34)NC(=O)[C@H]([C@@H](C)O)NC(=O)[C@H](CC(N)=O)NC2=O)C(=O)N[C@@H](Cc2ccc(OCCN(C)C)cc2)C(=O)N[C@@H](Cc2ccc3ccccc3c2)C(=O)N[C@@](C)(CC(C)C)C(=O)N1)C(N)=O [compound 10] ([Ava]CNTWQCY(Me2NCH2CH2)[2Nal][αMeL]EN[dL]-NH2; disulfide 2-7; lactam N-11) | 6.7% | 0.1% | 0.4% | 84% | 81% | 80% | 0.58 nM | 77% | 25.8 nM |
| CC(C)C[C@@H](NC(=O)[C@H](CC(N)=O)NC(=O)[C@@H]1CC(=O)N(C)CCCCCC(=O)N[C@H]2CSSC[C@H](NC(=O)[C@H](CCC(N)=O)NC(=O)[C@H](Cc3c[nH]c4ccccc34)NC(=O)[C@H]([C@@H](C)O)NC(=O)[C@H](CC(N)=O)NC2=O)C(=O)N[C@@H](Cc2ccc(OCCN(C)C)cc2)C(=O)N[C@@H](Cc2ccc3ccccc3c2)C(=O)N[C@@](C)(CC(C)C)C(=O)N1)C(N)=O [compound 40] ([X4]CNTWQCY(Me2NCH2CH2)[2Nal][αMeL]DN[dL]-NH2; disulfide 2-7; lactam N-11) | 8.3% | 1.3% | 3.0% | 77% | 70% | 54% | 1 nM | 12% | 50.8 nM |
| CC(=O)NCCCC[C@@H]1NC(=O)[C@H](Cc2c[nH]c3c(C)cccc23)NC(=O)[C@H]([C@@H](C)O)NC(=O)[C@H](CC(N)=O)NC(=O)[C@@H]2CSSC[C@H](NC1=O)C(=O)N[C@@H](Cc1ccc(OCCN(C)C)cc1)C(=O)N[C@@H](Cc1ccc3ccccc3c1)C(=O)NC1(CCOCC1)C(=O)N[C@H](C(=O)N[C@@H](CC(N)=O)C(=O)N[C@@H](Cc1c[nH]cn1)C(=O)N(C)CC(N)=O)CCC(=O)NCCCCC(=O)N2 [compound 46] ([Ava]CNT[Trp(7-Me)]K(Ac)CY(Me2NCH2CH2)[2Nal][Thp]ENH[Sar]-NH2; disulfide 2-7; lactam N-11) | 9.9% | 1.9% | 1.8% | 89% | 82% | 81% | 0.36 nM | 100% | 0.84 nM |
| CC(=O)N[C@H]1CCCCNC(=O)[C@@H]2CSSC[C@H](NC(=O)[C@H](CCC(N)=O)NC(=O)[C@H](Cc3c[nH]c4ccccc34)NC1=O)C(=O)N[C@@H](Cc1ccc(OCCN)cc1)C(=O)N[C@@H](Cc1ccc3ccccc3c1)C(=O)NC1(CCOCC1)C(=O)N[C@H](C(=O)N[C@@H](C)C(=O)N[C@H](CC(C)C)C(N)=O)CCC(=O)N(C)CCCCC(=O)N2 [compound 34] (Ac-KWQC[AEF][2Nal][Thp]EA[dL]-NH2; linker 1-4-8 via X3) | 7.9% | 0.0% | 0.3% | 100% | 99% | 96% | 0.57 nM | 84% | 13.3 nM |

Stronger by IC50 [2], values ahead:

| Chemical stability (relative purity loss) Buffer pH 1.2 [1] | Chemical stability (relative purity loss) Buffer pH 6.5 [1] | Chemical stability (relative purity loss) Buffer pH 7.4 [1] | remaining at 1 h, 1 µM (Pancreatin) | remaining at 2 h, 1 µM (Pancreatin) | remaining at 4 h, 1 µM (Pancreatin) | IC50 [2] | remaining at 1 h, 1 µM (Pepsin) | Compound | IC50 [3] |
| --- | --- | --- | --- | --- | --- | --- | --- | --- | --- |
| 12.5% | 1.3% | 2.8% | 80% | 80% | 76% | 0.28 nM | 100% | CC(=O)NCCCC[C@@H]1NC(=O)[C@H](Cc2c[nH]c3c(C)cccc23)NC(=O)[C@H]([C@@H](C)O)NC(=O)[C@H](CC(N)=O)NC(=O)[C@@H]2CSSC[C@H](NC1=O)C(=O)N[C@@H](Cc1ccc(OCCN(C)C)cc1)C(=O)N[C@@H](Cc1ccc3ccccc3c1)C(=O)NC(C)(C)C(=O)N[C@H](C(=O)N[C@@H](CC(N)=O)C(=O)N[C@@H](Cc1c[nH]cn1)C(=O)NCCC(N)=O)CCC(=O)NCCCCC(=O)N2 [compound 48] ([Ava]CNT[Trp(7-Me)]K(Ac)CY(Me2NCH2CH2)[2Nal][Aib]ENH[βAla]-NH2; disulfide 2-7; lactam N-11) | 0.6 nM |
| 2.9% | 0.6% | 0.9% | 87% | 85% | 82% | 0.31 nM | 96% | CC(=O)NCCCC[C@@H]1NC(=O)[C@H](Cc2c[nH]c3c(C)cccc23)NC(=O)[C@H]([C@@H](C)O)NC(=O)[C@H](CC(N)=O)NC(=O)[C@@H]2CSSC[C@H](NC1=O)C(=O)N[C@@H](Cc1ccc(OCCN(C)C)cc1)C(=O)N[C@@H](Cc1ccc3ccccc3c1)C(=O)N[C@@](C)(CC(C)C)C(=O)N[C@H](C(=O)N[C@@H](CC(N)=O)C(=O)N[C@@H](Cc1c[nH]cn1)C(=O)N(C)CC(N)=O)CCC(=O)NCCCCC(=O)N2 [compound 47] ([Ava]CNT[Trp(7-Me)]K(Ac)CY(Me2NCH2CH2)[2Nal][αMeL]ENH[Sar]-NH2; disulfide 2-7; lactam N-11) | 0.57 nM |
| 14.3% | 2.9% | 5.1% | 81% | 65% | 43% | 0.2 nM | 30% | CC(=O)N[C@H]1CCCCNC(=O)[C@@H]2CSSC[C@H](NC(=O)[C@H](CCC(N)=O)NC(=O)[C@H](Cc3c[nH]c4ccccc34)NC1=O)C(=O)N[C@@H](Cc1ccc(OCCN)cc1)C(=O)N[C@@H](Cc1ccc3ccccc3c1)C(=O)NC(C)(C)C(=O)N[C@H](C(=O)N[C@@H](CC(N)=O)C(=O)NCC(N)=O)CCC(=O)N(C)CCCCC(=O)N2 [compound 15] (Ac-KWQC[AEF][2Nal][Aib]ENG-NH2; linker 1-4-8 via X3) | 29.2 nM |
